Laboratory results published in ChEMBL document CHEMBL3091293, “The synthesis and biodistribution of [(11)C]metformin as a PET probe to study hepatobiliary transport mediated by the multi-drug and toxin extrusion transporter 1 (MATE1) in vivo” (Bioorg Med Chem, 2013).

How the values were obtained:
Assay type in all cases: ADME, organism-based; call rule not given here
[1] = system: Kidney; assay: Biodistribution in kidney of ddY mouse at 5.6 +/- 2.1 MBq, iv measured per gram of tissue at 60 mins by gamma-ray counting analysis; conditions: in vivo, 1 h
[2] = system: Blood; assay: Metabolic stability in blood of mouse at 5 +/- 2.3 MBq/kg, iv measured until 30 to 60 mins by HPLC analysis in presence of MATE1 inhibitor pyrimethamine; conditions: in vivo
[3] = system: Mus musculus; assay: Biodistribution in urinary bladder/urine of ddY mouse at 5.6 +/- 2.1 MBq, iv measured per gram of tissue at 30 mins by gamma-ray counting analysis; conditions: in vivo, 0.5 h
[4] = system: Spleen; assay: Biodistribution in spleen of ddY mouse at 5.6 +/- 2.1 MBq, iv measured per gram of tissue at 15 mins by gamma-ray counting analysis; conditions: in vivo, 0.25 h
[5] = system: Mus musculus; assay: Biodistribution in heart wall of ddY mouse at 5.6 +/- 2.1 MBq, iv measured per gram of tissue at 60 mins by gamma-ray counting analysis; conditions: in vivo, 1 h
[6] = system: Spleen; assay: Biodistribution in spleen of ddY mouse at 5.6 +/- 2.1 MBq, iv measured per gram of tissue at 30 mins by gamma-ray counting analysis; conditions: in vivo, 0.5 h
[7] = system: Mus musculus; assay: Biodistribution in urinary bladder of ddY mouse at 14.6 +/- 2.1 MBq, iv measured per gram of tissue at 14 mins by PET image analysis; conditions: in vivo
[8] = system: Mus musculus; assay: Biodistribution in large intestine wall of ddY mouse at 5.6 +/- 2.1 MBq, iv measured per gram of tissue at 90 mins by gamma-ray counting analysis; conditions: in vivo, 1.5 h
[9] = system: Mus musculus; assay: Biodistribution in remaining body parts of ddY mouse at 14.6 +/- 2.1 MBq, iv measured per gram of tissue at 27.5 mins by PET image analysis; conditions: in vivo
[10] = system: Mus musculus; assay: Biodistribution in small intestine wall of ddY mouse at 5.6 +/- 2.1 MBq, iv measured per gram of tissue at 30 mins by gamma-ray counting analysis; conditions: in vivo, 0.5 h
[11] = Metabolic stability in urine of mouse at 5 +/- 2.3 MBq/kg, iv measured until 30 to 60 mins by HPLC analysis in presence of MATE1 inhibitor pyrimethamine; conditions: in vivo
[12] = system: Lung; assay: Biodistribution in lung of ddY mouse at 5.6 +/- 2.1 MBq, iv measured per gram of tissue at 35 mins by gamma-ray counting analysis; conditions: in vivo
[13] = system: Mus musculus; assay: Biodistribution in large intestine wall of ddY mouse at 5.6 +/- 2.1 MBq, iv measured per gram of tissue at 30 mins by gamma-ray counting analysis; conditions: in vivo, 0.5 h
[14] = Drug uptake in urinary bladder of ddY mouse at 127 +/- 35 MBq/kg, iv measured up to 4.5 mins by microPET image analysis in presence of MATE1 inhibitor pyrimethamine; conditions: in vivo, 0.075 h
[15] = system: Spleen; assay: Biodistribution in spleen of ddY mouse at 5.6 +/- 2.1 MBq, iv measured per gram of tissue at 45 mins by gamma-ray counting analysis; conditions: in vivo, 0.75 h
[16] = system: Mus musculus; assay: Biodistribution in urinary bladder/urine of ddY mouse at 5.6 +/- 2.1 MBq, iv measured per gram of tissue at 45 mins by gamma-ray counting analysis; conditions: in vivo, 0.75 h
[17] = system: Mus musculus; assay: Biodistribution in urinary bladder/urine of ddY mouse at 5.6 +/- 2.1 MBq, iv measured per gram of tissue at 15 mins by gamma-ray counting analysis; conditions: in vivo, 0.25 h
[18] = system: Mus musculus; assay: Biodistribution in stomach wall of ddY mouse at 5.6 +/- 2.1 MBq, iv measured per gram of tissue at 60 mins by gamma-ray counting analysis; conditions: in vivo, 1 h

- Drug uptake [1]: 1.068 %ID
- Stability [2]: Stable
- Drug uptake [3]: 73.314 %ID
- Drug uptake [4]: 0.144 %ID
- Drug uptake [5]: 0.038 %ID
- Drug uptake [6]: 0.162 %ID
- Drug uptake [7]: 56.419 %ID
- Drug uptake [8]: 0.24 %ID
- Drug uptake [9]: 28.532 %ID
- Drug uptake [10]: 3.165 %ID
- Stability [11]: Stable
- Drug uptake [12]: 0.119 %ID
- Drug uptake [13]: 0.352 %ID
- Drug uptake [14]: Active
- Drug uptake [15]: 0.123 %ID
- Drug uptake [16]: 78.906 %ID
- Drug uptake [17]: 35.204 %ID
- Drug uptake [18]: 0.169 %ID
Compound: CN([11CH3])C(=N)NC(=N)N
